# In ChEMBL document CHEMBL4002643, “Tubulin-binding dibenz[c,e]oxepines: Part 2. Structural variation and biological evaluation as tumour vasculature disrupting agents” (Bioorg Med Chem, 2017):
# pIC50: −log10 of the molar value.
# Legend:
# OVCAR-8 = test: Cytotoxicity against human OVCAR8 cells assessed as growth inhibition after 48 hrs by SRB assay; type: functional; conditions: OVCAR-8, 48 h
# NCI-H322M = test: Cytotoxicity against human NCI-H322M cells assessed as growth inhibition after 48 hrs by SRB assay; type: functional
# Hs-578T = test: Cytotoxicity against human Hs 578T cells assessed as growth inhibition after 48 hrs by SRB assay; type: functional
# MDA-MB-231 = test: Cytotoxicity against human MDA-MB-231 cells assessed as growth inhibition after 48 hrs by SRB assay; type: functional; conditions: MDA-MB-231, 48 h
# SN12C = test: Cytotoxicity against human SN12C cells assessed as growth inhibition after 48 hrs by SRB assay; type: functional
# NCI-H226 = test: Cytotoxicity against human NCI-H226 cells assessed as growth inhibition after 48 hrs by SRB assay; type: functional; conditions: NCI-H226, 48 h
# SF-268 = test: Cytotoxicity against human SF268 cells assessed as growth inhibition after 48 hrs by SRB assay; type: functional; conditions: SF-268, 48 h
# UACC-62 = test: Cytotoxicity against human UACC62 cells assessed as growth inhibition after 48 hrs by SRB assay; type: functional; conditions: UACC-62, 48 h
# UO-31 = test: Cytotoxicity against human UO31 cells assessed as growth inhibition after 48 hrs by SRB assay; type: functional; conditions: UO-31, 48 h
# OVCAR-3 = test: Cytotoxicity against human OVCAR3 cells assessed as growth inhibition after 48 hrs by SRB assay; type: functional; conditions: OVCAR-3, 48 h
# SR = test: Cytotoxicity against human SR cells assessed as growth inhibition after 48 hrs by SRB assay; type: functional
# IGROV-1 = test: Cytotoxicity against human IGROV1 cells assessed as growth inhibition after 48 hrs by SRB assay; type: functional; conditions: IGROV-1, 48 h
# DU-145 = test: Cytotoxicity against human DU145 cells assessed as growth inhibition after 48 hrs by SRB assay; type: functional; conditions: DU-145, 48 h
# T47D = test: Cytotoxicity against human T47D cells assessed as growth inhibition after 48 hrs by SRB assay; type: functional
# 786-0 = test: Cytotoxicity against human 786-0 cells assessed as growth inhibition after 48 hrs by SRB assay; type: functional; conditions: 786-0, 48 h
# SK-MEL-5 = test: Cytotoxicity against human SK-MEL-5 cells assessed as growth inhibition after 48 hrs by SRB assay; type: functional; conditions: SK-MEL-5, 48 h
# SNB-19 = test: Cytotoxicity against human SNB19 cells assessed as growth inhibition after 48 hrs by SRB assay; type: functional; conditions: SNB-19, 48 h
# KM12 = test: Cytotoxicity against human KM12 cells assessed as growth inhibition after 48 hrs by SRB assay; type: functional; conditions: KM12, 48 h
# MCF7 = test: Cytotoxicity against human MCF7 cells assessed as growth inhibition after 48 hrs by SRB assay; type: functional; conditions: MCF7, 48 h
# K562 = test: Cytotoxicity against human K562 cells assessed as growth inhibition after 48 hrs by SRB assay; type: functional; conditions: K562, 48 h
# NCI-H522 = test: Cytotoxicity against human NCI-H522 cells assessed as growth inhibition after 48 hrs by SRB assay; type: functional; conditions: NCI-H522, 48 h
# NCI-H460 = test: Cytotoxicity against human NCI-H460 cells assessed as growth inhibition after 48 hrs by SRB assay; type: functional; conditions: NCI-H460, 48 h
# A498 = test: Cytotoxicity against human A498 cells assessed as growth inhibition after 48 hrs by SRB assay; type: functional; conditions: A498, 48 h
# SW-620 = test: Cytotoxicity against human SW620 cells assessed as growth inhibition after 48 hrs by SRB assay; type: functional; conditions: SW-620, 48 h
# SF-539 = test: Cytotoxicity against human SF539 cells assessed as growth inhibition after 48 hrs by SRB assay; type: functional; conditions: SF-539, 48 h
# RPMI-8226 = test: Cytotoxicity against human RPMI8226 cells assessed as growth inhibition after 48 hrs by SRB assay; type: functional; conditions: RPMI-8226, 48 h
# MDA-MB-435 = test: Cytotoxicity against human MDA-MB-435 cells assessed as growth inhibition after 48 hrs by SRB assay; type: functional; conditions: MDA-MB-435, 48 h
# OVCAR-4 = test: Cytotoxicity against human OVCAR4 cells assessed as growth inhibition after 48 hrs by SRB assay; type: functional; conditions: OVCAR-4, 48 h
# HCT-116 = test: Cytotoxicity against human HCT116 cells assessed as growth inhibition after 48 hrs by SRB assay; type: functional; conditions: HCT-116, 48 h
# SNB-75 = test: Cytotoxicity against human SNB75 cells assessed as growth inhibition after 48 hrs by SRB assay; type: functional; conditions: SNB-75, 48 h
# NCI/ADR-RES = test: Cytotoxicity against human NCI-ADR-RES cells assessed as growth inhibition after 48 hrs by SRB assay; type: functional
# [1] = Inhibition of porcine tubulin assembly measured for 30 mins by UV/visible spectrophotometric method; set-up: species or system Sus scrofa
# LOX IMVI = test: Cytotoxicity against human LOXIMVI cells assessed as growth inhibition after 48 hrs by SRB assay; type: functional
# HOP-62 = test: Cytotoxicity against human HOP62 cells assessed as growth inhibition after 48 hrs by SRB assay; type: functional; conditions: HOP-62, 48 h
# CAKI-1 = test: Cytotoxicity against human Caki1 cells assessed as growth inhibition after 48 hrs by SRB assay; type: functional; conditions: CAKI-1, 48 h
# HCT-15 = test: Cytotoxicity against human HCT15 cells assessed as growth inhibition after 48 hrs by SRB assay; type: functional; conditions: HCT-15, 48 h
# RXF 393 = test: Cytotoxicity against human RXF393 cells assessed as growth inhibition after 48 hrs by SRB assay; type: functional; conditions: RXF 393, 48 h
# BT-549 = test: Cytotoxicity against human BT549 cells assessed as growth inhibition after 48 hrs by SRB assay; type: functional; conditions: BT-549, 48 h
# UACC-257 = test: Cytotoxicity against human UACC257 cells assessed as growth inhibition after 48 hrs by SRB assay; type: functional; conditions: UACC-257, 48 h
# CCRF-CEM = test: Cytotoxicity against human CCRF-CEM cells assessed as growth inhibition after 48 hrs by SRB assay; type: functional
# SK-MEL-2 = test: Cytotoxicity against human SK-MEL-2 cells assessed as growth inhibition after 48 hrs by SRB assay; type: functional; conditions: SK-MEL-2, 48 h
# HL-60(TB) = test: Cytotoxicity against human HL-60(TB) cells assessed as growth inhibition after 48 hrs by SRB assay; type: functional; conditions: HL-60, 48 h
# M14 = test: Cytotoxicity against human M14 cells assessed as growth inhibition after 48 hrs by SRB assay; type: functional; conditions: M14, 48 h
# HCC 2998 = test: Cytotoxicity against human HCC2998 cells assessed as growth inhibition after 48 hrs by SRB assay; type: functional; conditions: HCC 2998, 48 h
# SK-MEL-28 = test: Cytotoxicity against human SK-MEL-28 cells assessed as growth inhibition after 48 hrs by SRB assay; type: functional; conditions: SK-MEL-28, 48 h
# MDA-MB-468 = test: Cytotoxicity against human MDA-MB-468 cells assessed as growth inhibition after 48 hrs by SRB assay; type: functional; conditions: MDA-MB-468, 48 h
compound,measurement,setting,value
COc1ccc2c(c1O)COCc1cc(OC)c(OC)c(OC)c1-2,GI50,OVCAR-8,200 nM
same,GI50,NCI-H322M,520 nM
same,GI50,Hs-578T,40 nM
same,GI50,MDA-MB-231,270 nM
same,GI50,SN12C,210 nM
same,GI50,NCI-H226,3470 nM
same,GI50,SF-268,90 nM
same,GI50,UACC-62,1000 nM
same,GI50,UO-31,14.5 µM
same,GI50,OVCAR-3,210 nM
same,GI50,SR,40 nM
same,GI50,IGROV-1,630 nM
same,GI50,DU-145,60 nM
same,GI50,T47D,33.9 µM
same,GI50,786-0,430 nM
same,GI50,SK-MEL-5,40 nM
same,GI50,SNB-19,140 nM
same,GI50,KM12,50 nM
same,GI50,MCF7,70 nM
same,GI50,K562,40 nM
same,GI50,NCI-H522,40 nM
same,GI50,NCI-H460,310 nM
same,GI50,A498,3.02 µM
same,GI50,SW-620,50 nM
same,GI50,SF-539,50 nM
same,GI50,RPMI-8226,320 nM
same,GI50,MDA-MB-435,30 nM
same,GI50,OVCAR-4,710 nM
same,GI50,HCT-116,320 nM
same,GI50,SNB-75,70 nM
same,GI50,NCI/ADR-RES,50 nM
same,pIC50,[1],5.66
same,GI50,LOX IMVI,80 nM
same,GI50,HOP-62,630 nM
same,GI50,CAKI-1,830 nM
same,GI50,HCT-15,80 nM
same,GI50,RXF 393,40 nM
same,GI50,BT-549,260 nM
same,GI50,UACC-257,> 100 µM
same,GI50,CCRF-CEM,40 nM
same,GI50,SK-MEL-2,260 nM
same,GI50,HL-60(TB),30 nM
same,GI50,M14,50 nM
same,GI50,HCC 2998,320 nM
same,GI50,SK-MEL-28,1580 nM
same,GI50,MDA-MB-468,220 nM
COc1ccc2c(c1)COCc1cc(OC)c(OC)c(OC)c1-2,GI50,OVCAR-8,310 nM
same,GI50,NCI-H322M,2040 nM
same,GI50,Hs-578T,240 nM
same,GI50,MDA-MB-231,590 nM
same,GI50,SN12C,830 nM
same,GI50,NCI-H226,1580 nM
same,GI50,SF-268,460 nM
same,GI50,UACC-62,80 nM
same,GI50,UO-31,15.1 µM
same,GI50,OVCAR-3,50 nM
same,GI50,SR,40 nM
same,GI50,IGROV-1,850 nM
same,GI50,DU-145,180 nM
same,GI50,T47D,> 100 µM
same,GI50,786-0,340 nM
same,GI50,SK-MEL-5,30 nM
same,GI50,SNB-19,980 nM
same,GI50,KM12,50 nM
same,GI50,MCF7,40 nM
same,GI50,K562,40 nM
same,GI50,NCI-H522,280 nM
same,GI50,NCI-H460,170 nM
same,GI50,A498,0.17 µM
same,GI50,SW-620,50 nM
same,GI50,SF-539,160 nM
same,GI50,RPMI-8226,330 nM
same,GI50,MDA-MB-435,30 nM
same,GI50,OVCAR-4,740 nM
same,GI50,HCT-116,50 nM
same,GI50,SNB-75,90 nM
same,GI50,NCI/ADR-RES,70 nM
same,pIC50,[1],5.13
same,GI50,LOX IMVI,210 nM
same,GI50,HOP-62,1120 nM
same,GI50,CAKI-1,30200 nM
same,GI50,HCT-15,80 nM
same,GI50,RXF 393,80 nM
same,GI50,BT-549,200 nM
same,GI50,UACC-257,> 100 µM
same,GI50,CCRF-CEM,80 nM
same,GI50,SK-MEL-2,100 nM
same,GI50,HL-60(TB),40 nM
same,GI50,M14,50 nM
same,GI50,HCC 2998,220 nM
same,GI50,SK-MEL-28,80 nM
same,GI50,MDA-MB-468,30 nM
COc1ccc2c(c1OP(=O)([O-])[O-])COCc1cc(OC)c(OC)c(OC)c1-2.[Na+].[Na+],GI50,OVCAR-8,420 nM
same,GI50,NCI-H322M,1320 nM
same,GI50,Hs-578T,240 nM
same,GI50,MDA-MB-231,710 nM
same,GI50,SN12C,720 nM
same,GI50,NCI-H226,2820 nM
same,GI50,SF-268,790 nM
same,GI50,UACC-62,5500 nM
same,GI50,UO-31,19.5 µM
same,GI50,OVCAR-3,280 nM
same,GI50,SR,190 nM
same,GI50,IGROV-1,4070 nM
same,GI50,DU-145,390 nM
same,GI50,T47D,8.51 µM
same,GI50,786-0,720 nM
same,GI50,SK-MEL-5,260 nM
same,GI50,SNB-19,510 nM
same,GI50,KM12,300 nM
same,GI50,MCF7,400 nM
same,GI50,K562,280 nM
same,GI50,NCI-H522,300 nM
same,GI50,NCI-H460,360 nM
same,GI50,A498,18.6 µM
same,GI50,SW-620,400 nM
same,GI50,SF-539,330 nM
same,GI50,RPMI-8226,460 nM
same,GI50,MDA-MB-435,40 nM
same,GI50,OVCAR-4,1290 nM
same,GI50,HCT-116,430 nM
same,GI50,SNB-75,540 nM
same,GI50,NCI/ADR-RES,280 nM
same,pIC50,[1],5.85
same,GI50,LOX IMVI,660 nM
same,GI50,HOP-62,790 nM
same,GI50,CAKI-1,790 nM
same,GI50,HCT-15,440 nM
same,GI50,RXF 393,210 nM
same,GI50,BT-549,2240 nM
same,GI50,UACC-257,4.68 µM
same,GI50,CCRF-CEM,290 nM
same,GI50,SK-MEL-2,5370 nM
same,GI50,HL-60(TB),320 nM
same,GI50,M14,270 nM
same,GI50,HCC 2998,420 nM
same,GI50,SK-MEL-28,890 nM
same,GI50,MDA-MB-468,1150 nM
